EP3506874B1, “A PERSONAL CARE COMPOSITION” (Unilever N.V., priority 2016, dated 2018)

Legend:
THP1-XBlue™ cells = assay: Anti-inflammation THP-1 in vitro assay: LPS-induced IL-6 by ELISA; assay type: cell-based
Procedure: The following procedure was used to test the anti-inflammation efficacy of the various actives alone or in combination. THP1-XBlue™ (Cat No: thpx-sp, InvivoGen) cells were cultured as suspense in RPMI 1640 medium supplemented with 10% FBS, penicillin (10 U/mL) - streptomycin (10 µg/ML). Cells were differentiated in 24-well plates at the density of 5 x 10^5 cells / well with 100 nM PMA for 72 h. Cells were then co-treated with pure E. coli lipopolysaccharides (LPS) and single concentration or a combination of 6-gingerdiol and niacinamide at different doses. After 24 h, the supernatants were collected measured for interleukin (IL)-6 as pro-inflammatory bio-marker using enzyme-linked immunosorbent assay (ELISA).

[1] = test system: Primary adult human keratinocytes (HEKa); assay: 2-D Dandruff Model: triple cytokine mix (IL-17, IL-22, TNFα) induced IL-8 by ELISA, normalised to protein; assay type: cell-based; conditions: with triple cytokine mix, mix alone 744.83
Procedure: Primary adult human keratinocytes (HEKa) frozen at passage 1 were purchased from Invitrogen (Cat no […]). They were thawed into KGM Gold (Lonza cat no 00195769) made up with all components of the accompanying bullet kit plus 70μM calcium (from a stock solution of 200mM calcium chloride), placed in a T75 tissue culture flask and grown to 70-80% confluence. The cells were passaged and again grown to 70-80% confluence. At passage 3 the cells were washed with calcium and magnesium free PBS (Life Technologies cat no 14190-094) and removed from the flask using trypsin-EDTA (Life Technologies cat no 25300-054) and washed by centrifugation with trypsin neutralising solution (Life Technologies cat no R-002-100). The cell pellet was re-suspended in KGM Gold plus 70μM calcium and containing the bullet kit components but omitting the gentamycin and hydrocortisone (referred to as plating medium). The cells were plated into 24-well plates at a density of 2x10^4 cells/well and allowed to settle for 24 hours prior to treatment. The medium is removed from the cells and replace by 0.5ml plating medium containing […], […] and […] TNFα together with the active at the required concentration. A concentration range can be done. Also included are an untreated control, a vehicle control and a triple cytokine mix without active all in triplicate. The plates are incubated for a further 16 to 24 hours. In this case the actives were 6-gingerdiol and a selection of curcuminoids. The medium is harvested for IL-8 ELISA (R &D Systems Duoset kit cat no DY208) and the cells lysed for protein assay (Pierce BCA Protein Assay Kit Life Technologies cat no 23225) in order to normalise IL-8 to protein.

[2] = Solubility in organic solvents; assay type: physicochemical; conditions: commonly used organic solvents such as alcohols, ethers, esters, acetonitrile, chloroform, dichloromethane, dimethylformamide, dimethylsulfoxide

Row | solubility [2] | Compound | Concentration of IL-6 (THP1-XBlue™ cells; 0.5 mM niacinamide, with LPS, LPS alone 46137) [pg/mL] | Concentration of IL-6 (THP1-XBlue™ cells; 1 mM of niacinamide, with LPS, LPS alone 46137) [pg/mL] | Concentration of IL-6 (THP1-XBlue™ cells; 16 mM of niacinamide, co-treated with LPS, 24 h, LPS alone 10547) [pg/mL] | Concentration of IL-8 ([1]; 10 mM of niacinamide) [pg/100µgprotein] | Concentration of IL-6 (THP1-XBlue™ cells; 1.25 µM of 6-gingerdiol, with LPS, LPS alone 46137) [pg/mL] | Concentration of IL-6 (THP1-XBlue™ cells; 10 µM of 6-gingerdiol, co-treated with LPS, 24 h, LPS alone 10547) [pg/mL] | Concentration of IL-8 ([1]; 5 µM of 6-gingerdiol) [pg/100µgprotein] | Concentration of IL-8 ([1]; 10 µM of 6-gingerdiol) [pg/100µgprotein] | Concentration of IL-8 ([1]; 20 µM of 6-gingerdiol) [pg/100µgprotein]
1 |  | NC(=O)c1cccnc1 [niacinamide] | 41688 | 39894 | 6031 | 408.30 |  |  |  |  | 
2 | soluble | CCCCCC(O)CC(O)CCc1ccc(O)c(OC)c1 (stereo not shown) [6-gingerdiol, 1-(4-hydroxy-3-methoxyphenyl)decane-3,5-diol] |  |  |  |  | 37212 | 8781 | 347.99 | 446.85 | 390.31
